Test results published in ChEMBL document CHEMBL3509421, “FDA drug approval package for diclofenac acid (NDA 22-202 CP, Ref ID: 3374276)”.

Experiments:
[1] = Mean AUC (0-infinity) of diclofenac following single oral dosing of 50 mg diclofenac potassium softgel capsule in healthy human; type: ADME, organism-based; set-up: time infinity, dietary status Fasting, dose 50 mg, dosed compound id 2.46815e+06, dosed compound name Diclofenac potassium, gender Mixed, regimen Single, route oral, study doses 25/50 mg; conditions: both, plasma, read-out: AUC (0-infinity)
[2] = Geometric mean for Cmax of diclofenac following single oral dosing of 50 mg Cataflam tablet in healthy human; type: ADME, organism-based; set-up: dietary status Fasting, dose 50 mg, dosed compound id 2.46815e+06, dosed compound name Diclofenac potassium, gender Mixed, regimen Single, route oral; conditions: both, plasma
[3] = Mean Cmax value of diclofenac following single oral dosing of 18 mg Zorvolex capsule in healthy human; type: ADME, organism-based; set-up: dietary status Fasting, dose 18 mg, dosed compound id 2.46815e+06, dosed compound name Diclofenac, gender Mixed, regimen Single, route oral; conditions: both, plasma
[4] = Maximum tmax of diclofenac following single oral dosing of 18 mg Zorvolex capsule in healthy human; type: ADME, organism-based, Plasma; set-up: dietary status Fasting, dose 18 mg, dosed compound id 2.46815e+06, dosed compound name Diclofenac, gender Mixed, regimen Single, route oral; conditions: in vivo
[5] = Mean AUC (0-infinity) value of diclofenac following single oral dosing of 35 mg Zorvolex capsule in healthy human; type: ADME, organism-based; set-up: time infinity, dietary status Fed, dose 35 mg, dosed compound id 2.46815e+06, dosed compound name Diclofenac, gender Mixed, regimen Single, route oral; conditions: both, plasma, read-out: AUC (0-infinity)
[6] = Mean Kel of diclofenac potassium following oral dosing of Cataflam 50 mf tablet in healthy human; type: ADME, organism-based; set-up: dietary status Fasting, dose 50 mg, dosed compound id 2.46815e+06, dosed compound name Diclofenac potassium, gender Mixed, regimen Single, route oral, study doses 50 mg; conditions: both, plasma, 50 mg
clinical [7] = conditions: both, human, plasma, po, 35 mg
[8] = Geometric mean for AUC (0-infinity) of diclofenac following single oral dosing of 50 mg Cataflam tablet in healthy human; type: ADME, organism-based; set-up: dietary status Fed, dose 50 mg, dosed compound id 2.46815e+06, dosed compound name Diclofenac potassium, gender Mixed, regimen Single, route oral, time infinity; conditions: both, plasma, read-out: AUC (0-infinity)
[9] = Geometric mean for apparent terminal elimination rate constant of diclofenac following single oral dosing of 50 mg Cataflam tablet in healthy human; type: ADME, organism-based, Plasma; set-up: dietary status Fed, dose 50 mg, dosed compound id 2.46815e+06, dosed compound name Diclofenac potassium, gender Mixed, regimen Single, route oral; conditions: in vivo
[10] = Mean Cmax of diclofenac following single oral dosing of 50 mg Cataflam in healthy human; type: ADME, organism-based; set-up: dietary status Fasting, dose 50 mg, dosed compound id 2.46815e+06, dosed compound name Diclofenac potassium, gender Mixed, regimen Single, route oral, study doses 50 mg; conditions: both, plasma
[11] = Mean Tmax of diclofenac following single oral dosing of 25 mg diclofenac potassium soft gelatin capsule in healthy human; type: ADME, organism-based; set-up: dietary status Fasting, dose 25 mg, dosed compound id 2.46815e+06, dosed compound name Diclofenac potassium, gender Mixed, regimen Single, route oral, study doses 25/50 mg; conditions: both, plasma
[12] = Mean AUC(0-t) of diclofenac potassium following oral dosing of PRO-513 50 mg sachet in healthy human; type: ADME, organism-based; set-up: dietary status Fed, dose 50 mg, dosed compound id 2.46815e+06, dosed compound name Diclofenac potassium, gender Mixed, regimen Single, route oral, study doses 50 mg; conditions: both, plasma
[13] = Mean AUC (0-t) value of diclofenac following single oral dosing of 50 mg Cataflam tablet in healthy human; type: ADME, organism-based; set-up: dietary status Fed, dose 50 mg, dosed compound id 2.46815e+06, dosed compound name Diclofenac potassium, gender Mixed, regimen Single, route oral; conditions: both, plasma
[14] = Median tmax of diclofenac following single oral dosing of 18 mg Zorvolex capsule in healthy human; type: ADME, organism-based; set-up: dietary status Fasting, dose 18 mg, dosed compound id 2.46815e+06, dosed compound name Diclofenac, gender Mixed, regimen Single, route oral; conditions: both, plasma, read-out: Median Tmax
[15] = Maximum tmax of diclofenac following single oral dosing of 35 mg Zorvolex capsule in healthy human; type: ADME, organism-based, Plasma; set-up: dietary status Fed, dose 35 mg, dosed compound id 2.46815e+06, dosed compound name Diclofenac, gender Mixed, regimen Single, route oral; conditions: in vivo
[16] = Minimum tmax of diclofenac following single oral dosing of 50 mg Cataflam tablet in healthy human; type: ADME, organism-based, Plasma; set-up: dietary status Fasting, dose 50 mg, dosed compound id 2.46815e+06, dosed compound name Diclofenac potassium, gender Mixed, regimen Single, route oral; conditions: in vivo
[17] = Mean Cmax value of diclofenac following single oral dosing of 50 mg Cataflam tablet in healthy human; type: ADME, organism-based; set-up: dietary status Fed, dose 50 mg, dosed compound id 2.46815e+06, dosed compound name Diclofenac potassium, gender Mixed, regimen Single, route oral; conditions: both, plasma
[18] = Maximum tmax of diclofenac following single oral dosing of 50 mg Cataflam tablet in healthy human; type: ADME, organism-based, Plasma; set-up: dietary status Fasting, dose 50 mg, dosed compound id 2.46815e+06, dosed compound name Diclofenac potassium, gender Mixed, regimen Single, route oral; conditions: in vivo
[19] = Mean AUC (0-infinity) of diclofenac following single oral dosing of 25 mg diclofenac potassium softgel capsule in healthy human; type: ADME, organism-based; set-up: time infinity, dietary status Fed, dose 25 mg, dosed compound id 2.46815e+06, dosed compound name Diclofenac potassium, gender Mixed, regimen Single, route oral, study doses 25/50 mg; conditions: both, plasma, read-out: AUC (0-infinity)
[20] = Mean terminal elimination half-life of diclofenac potassium following oral dosing of Cataflam 50 mf tablet in healthy human; conditions: both, plasma, 50 mg
[21] = Median tmax of diclofenac following single oral dosing of 35 mg Zorvolex capsule in healthy human; type: ADME, organism-based; set-up: dietary status Fasting, dose 35 mg, dosed compound id 2.46815e+06, dosed compound name Diclofenac, gender Mixed, regimen Single, route oral; conditions: both, plasma, read-out: Median Tmax
[22] = Mean AUC(0-infinity) of diclofenac following single oral dosing of 25 mg diclofenac potassium soft gelatin capsule in healthy human; type: ADME, organism-based; set-up: time infinity, dietary status Fasting, dose 25 mg, dosed compound id 2.46815e+06, dosed compound name Diclofenac potassium, gender Mixed, regimen Single, route oral, study doses 25/50 mg; conditions: both, plasma, read-out: AUC (0-infinity)
clinical [23] = conditions: both, human, plasma, po, 50 mg
[24] = Mean apparent terminal elimination rate constant value of diclofenac following single oral dosing of 18 mg Zorvolex capsule in healthy human; type: ADME, organism-based, Plasma; set-up: dietary status Fasting, dose 18 mg, dosed compound id 2.46815e+06, dosed compound name Diclofenac, gender Mixed, regimen Single, route oral; conditions: in vivo
clinical [25] = conditions: both, human, plasma, po, 25 mg
Description: Mean terminal elimination half-life of diclofenac following single oral dosing of 25 mg diclofenac potassium softgel capsule in healthy human

clinical [26] = conditions: both, human, plasma, po, 18 mg
[27] = Mean Tmax of diclofenac following single oral dosing of 25 mg diclofenac potassium softgel capsule in healthy human; type: ADME, organism-based; set-up: dietary status Fasting, dose 25 mg, dosed compound id 2.46815e+06, dosed compound name Diclofenac potassium, gender Mixed, regimen Single, route oral, study doses 25/50 mg; conditions: both, plasma
[28] = Mean Cmax value of diclofenac following single oral dosing of 35 mg Zorvolex capsule in healthy human; type: ADME, organism-based; set-up: dietary status Fed, dose 35 mg, dosed compound id 2.46815e+06, dosed compound name Diclofenac, gender Mixed, regimen Single, route oral; conditions: both, plasma
[29] = Mean apparent terminal elimination rate constant value of diclofenac following single oral dosing of 50 mg Cataflam tablet in healthy human; type: ADME, organism-based, Plasma; set-up: dietary status Fasting, dose 50 mg, dosed compound id 2.46815e+06, dosed compound name Diclofenac potassium, gender Mixed, regimen Single, route oral; conditions: in vivo
[30] = Mean AUC(0-t) of diclofenac following single oral dosing of 50 mg diclofenac potassium soft gelatin capsule in healthy human; type: ADME, organism-based; set-up: dietary status Fasting, dose 50 mg, dosed compound id 2.46815e+06, dosed compound name Diclofenac potassium, gender Mixed, regimen Single, route oral, study doses 25/50 mg; conditions: both, plasma
[31] = Mean apparent terminal elimination rate constant value of diclofenac following single oral dosing of 35 mg Zorvolex capsule in healthy human; type: ADME, organism-based, Plasma; set-up: dietary status Fed, dose 35 mg, dosed compound id 2.46815e+06, dosed compound name Diclofenac, gender Mixed, regimen Single, route oral; conditions: in vivo
[32] = Minimum tmax of diclofenac following single oral dosing of 35 mg Zorvolex capsule in healthy human; type: ADME, organism-based, Plasma; set-up: dietary status Fed, dose 35 mg, dosed compound id 2.46815e+06, dosed compound name Diclofenac, gender Mixed, regimen Single, route oral; conditions: in vivo

SMILES: O=C(O)Cc1ccccc1Nc1c(Cl)cccc1Cl [DICLOFENAC]
- AUC(0-inf) [1]: 1550 ng·h/mL
- Cmax [2]: 1090 ng/mL
- Cmax [3]: 496 ng/mL
- Maximum Tmax [4]: 4.5 h
- AUC(0-inf) [5]: 876 ng·h/mL
- k el [6]: 0.000164 s⁻¹
- half-life (clinical [7]): 2.1 h
- AUC(0-inf) [8]: 1180 ng·h/mL
- lambda-z [9]: 0.318 h⁻¹
- Cmax [10]: 1170 ng/mL
- Tmax [11]: 0.45 h
- AUC(0-t) [12]: 1050 ng·h/mL
- AUC(0-t) [13]: 1180 ng·h/mL
- Tmax [14]: 1 h
- Maximum Tmax [15]: 10 h
- Minimum Tmax [16]: 0.25 h
- Cmax [17]: 713 ng/mL
- Maximum Tmax [18]: 4.48 h
- AUC(0-inf) [19]: 713 ng·h/mL
- half-life [20]: 1.56 h
- Tmax [21]: 1 h
- AUC(0-inf) [22]: 603 ng·h/mL
- half-life (clinical [23]): 1.84 h
- lambda-z [24]: 0.399 h⁻¹
- half-life (clinical [25]): 1.11 h
- half-life (clinical [26]): 1.87 h
- Tmax [27]: 0.49 h
- Cmax [28]: 355 ng/mL
- lambda-z [29]: 0.333 h⁻¹
- AUC(0-t) [30]: 1200 ng·h/mL
- lambda-z [31]: 0.371 h⁻¹
- Minimum Tmax [32]: 0.5 h
